≈ marks a conversion by molar mass, not a printed value. Like-named read-outs stand apart in the source and are kept apart here.
Experiments:
InhA = conditions: cited from earlier work
M. tuberculosis H37Rv [1] = experiment: Griess assay for NO· quantification, H37Rv; assay type: cell-based, Mycobacterium tuberculosis; conditions: for NO· production (supernatant nitrite concentration), 20 µM compound / NO· production (supernatant nitrite concentration), 100 µM compound: 2 days
M. tuberculosis fgd1::tn [2] = experiment: Griess assay for NO· quantification, fgd1::tn; assay type: cell-based, Mycobacterium tuberculosis; conditions: F420H2 cofactor deficiency; 20 or 100 µM
[3] = test system: M. tuberculosis strain fgd1::tn; experiment: microbe, parasite or virus in culture; assay type: cell-based; conditions: for MIC shift, fgd1::tn strain: fgd1::tn vs H37Rv; for MIC: Mycobacterium tuberculosis, read-out: MIC (µM) fgd1::tn
[4] = test system: M. tuberculosis strain ddn::tn; experiment: microbe, parasite or virus in culture; assay type: cell-based; conditions: Mycobacterium tuberculosis, read-out: MIC (µM) ddn::tn
in vitro = assay type: cell-based; conditions: African green monkey
[5] = test system: M. tuberculosis streptomycin-sensitive (ss18b) strain; assay type: cell-based, Mycobacterium tuberculosis; conditions: streptomycin-starved nonreplicating model; 7 days treatment
M. tuberculosis H37Rv [6] = conditions: for time of treatment after which intrabacterial metabolite was detectable: H37Rv, 20 µM JSF-2164
[7] = target: purified M. tuberculosis InhA (Mycobacterium tuberculosis, UniProt P9WGR1); experiment: biochemical
M. tuberculosis H37Rv [8] = assay type: cell-based, Mycobacterium tuberculosis
[9] = test system: M. tuberculosis fatty acid biosynthesis; assay type: cell-based, Mycobacterium tuberculosis
M. tuberculosis fgd1::tn [10] = conditions: 20 µM JSF-2164
[11] = read-out: % InhA inhibition at 50 µM with 1% CMC Tween-20, 50 µM compound, 1% CMC Tween-20

purified M. tuberculosis InhA, sequence (P9WGR1 whole entry, looked up): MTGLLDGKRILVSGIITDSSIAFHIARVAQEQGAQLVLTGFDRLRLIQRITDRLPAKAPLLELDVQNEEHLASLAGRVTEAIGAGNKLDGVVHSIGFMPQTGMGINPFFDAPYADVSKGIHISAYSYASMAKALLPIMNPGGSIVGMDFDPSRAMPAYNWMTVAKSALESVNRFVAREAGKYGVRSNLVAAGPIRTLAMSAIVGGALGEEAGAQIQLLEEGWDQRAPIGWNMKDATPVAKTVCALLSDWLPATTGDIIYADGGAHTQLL

CCCCCCc1ccc(Oc2ccccc2C)c(O)c1 [PT70]
Ki (InhA): 0.0078 µM
residence time (InhA): 24 min

O=[N+]([O-])c1cn2c(n1)OC[C@@H](OCc1ccc(OC(F)(F)F)cc1)C2 [pretomanid]
NO· production (supernatant nitrite concentration), 20 µM compound (M. tuberculosis H37Rv [1]; 20 µM exposure): 9.8 µM
NO· release (ratio of nitrite concentration to compound dose), 20 µM compound (M. tuberculosis H37Rv [1]; 20 µM exposure, initial 2 days): 49%
NO· production (supernatant nitrite concentration), 100 µM compound (M. tuberculosis H37Rv [1]; 100 µM exposure): 17 µM
NO· release (ratio of nitrite concentration to compound dose), 100 µM compound (M. tuberculosis H37Rv [1]; 100 µM exposure, initial 2 days): 17%
NO· production in fgd1::tn strain (M. tuberculosis fgd1::tn [2]): abolished
MIC shift, fgd1::tn strain [3]: > 500 fold

NNC(=O)c1ccncc1 [isoniazid, reference compound]
MIC [3]: 0.078 µM (≈ 0.0107 µg/mL)
MIC [4]: 0.078 µM (≈ 0.0107 µg/mL)

COc1cccc(Nc2ccc([N+](=O)[O-])c3nonc23)c1 [JSF-2164, N-(3-methoxyphenyl)-7-nitrobenzo[c][1,2,5]oxadiazol-4-amine]
NO· production (supernatant nitrite concentration), 20 µM compound (M. tuberculosis H37Rv [1]; 20 µM exposure): 0.84 µM
NO· production (supernatant nitrite concentration), 100 µM compound (M. tuberculosis H37Rv [1]; 100 µM exposure): 6.7 µM
CC50 (in vitro): 44 to 87 µM
NO· production in fgd1::tn strain (M. tuberculosis fgd1::tn [2]): abolished
MIC [3]: > 200 µM
MIC shift, fgd1::tn strain [3]: > 20 fold
in vitro efficacy versus ss18b strain [5]: exhibited in vitro efficacy
time at which intrabacterial compound was degraded to a negligible level (M. tuberculosis H37Rv [6]; Mycobacterium tuberculosis): ≥ 4 h
IC50 versus purified InhA relative to MIC against the H37Rv strain ([7]; IC50 larger than MIC): ca. 5 fold
IC50 ([7]; InhA IC50 (µM), without Tween-20, mean ± standard error): 51 µM
IC50 ([7]; InhA IC50 with Tween-20, Tween-20 at 1% of its CMC in enzymatic buffer): 65 ± 16 µM
inhibition at 50 µM [7, 11]: 44 ± 1%
inhibition at 50 µM ([7]; read-out: InhA Inhibition at 50 µM Cmpd, 50 µM compound, commercial material, mean ± standard error): ≥ 50%
inhibition at 50 µM ([7]; read-out: InhA inhibition at 50 µM compound, synthetic material, 50 µM compound, […]): 44%
bactericidal classification (MBC within 4-fold of MIC) (M. tuberculosis H37Rv [8]): not formally bactericidal
reduction in M. tuberculosis colony-forming units/mL (M. tuberculosis H37Rv [8]; 16× MIC, over 7 days, H37Rv): ca. 1 log10
MIC [4]: 8 µM (≈ 2.29 µg/mL)
effect on MAMEs and FAMEs (TLC) [9]: did not exhibit a pattern similar to that for INH

COc1cccc(Nc2ccc3nonc3c2N)c1 [JSF-3617, N5-(3-methoxyphenyl)benzo[c][1,2,5]oxadiazole-4,5-diamine]
MIC [3]: 125 µM (≈ 32 µg/mL)
time of treatment after which intrabacterial metabolite was detectable (M. tuberculosis H37Rv [6]): 30 min
inhibition at 50 µM [7, 11]: 77 ± 0.74%
time of treatment after which intrabacterial metabolite was discernible (M. tuberculosis fgd1::tn [10]): 4 h
MIC [4]: 250 µM (≈ 64.1 µg/mL)

COc1cccc(Nc2ccc(N)c3nonc23)c1 [JSF-3616, N4-(3-methoxyphenyl)-benzo[c][1,2,5]oxadiazole-4,7-diamine]
MIC [3]: 32 µM (≈ 8.2 µg/mL)
time of treatment after which intrabacterial metabolite was detectable (M. tuberculosis H37Rv [6]): 30 min
inhibition at 50 µM [7, 11]: 46 ± 2.9%
time of treatment after which intrabacterial metabolite was discernible (M. tuberculosis fgd1::tn [10]): 4 h
MIC [4]: 32 µM (≈ 8.2 µg/mL)
